Measured values published in patent publication US4469689A, “Sulfonate containing ester prodrugs of corticosteroids” (The Upjohn Company, priority 1983, dated 1984).
Counter-ions that a name gives are not always drawn.

Columns and labels:
[1] = hydrolysis of dilute aqueous solutions, t90% estimated from hydrolysis rate constants at 25° C. (Table I); format: physicochemical; settings: pH 4.75 (pH of optimum stability), dilute aqueous solution
Method: From the hydrolysis rate constants determined at 25° C. at various pH vlaues for dilute aqueous solutions of the compounds of the invention, estimates of t90% (time for 10% hydrolysis) may be calculated.

[2] = base catalyzed hydrolysis rate in concentrated versus dilute solution; format: physicochemical; settings: 0.267 M vs 5×10^-4 M
Text: The actual shelf-life of formulations of the above compounds would be expected to differ fom the above estimates for two reasons: (1) The solubility of the parent corticosteroid formed on hydrolysis may be exceeded prior to 10% degradation of the ester. Micelle formation by the intact prodrugs of Formula I results in solubilization of free corticosteroid thereby prolonging shelf-life. The degree of solubilization varies with the ester concentration, nature of the pro-moiety, and the structure of the corticosteroid. (2) Micelle formation by the intact prodrug in concentrated solutions results in stabilization of the ester linkage toward base catalyzed hydrolysis. For example, the base catalyzed hydrolysis rate in a 0.267 M solution of the compound of Example 1 is less than one-seventh the rate in a 5×10^-4 M solution.

[3] = background statement; cited from earlier work
[4] = system: mice; settings: M. Kawamura et al., Yakugaku Zasshi, 91, 871 (1971); cited from earlier work

With `C[C@H]1C[C@@H]2[C@H]([C@@H](O)C[C@@]3(C)[C@H]2CC[C@]3(O)C(=O)COC(=O)CCCCCS(=O)(=O)O)[C@@]2(C)C=CC(=O)C=C12` [Example 1, 6α-Methylprednisolone, 21-(6-sulfohexanoate), sodium salt] the “t90% (time for 10% hydrolysis)” value [1] was 2.7 years and the “base catalyzed hydrolysis rate in a 0.267 M solution relative to the rate in a 5×10^-4 M solution” value [2] was “less than one-seventh”.

In the case of `C[C@H]1C[C@@H]2[C@H]([C@@H](O)C[C@@]3(C)[C@H]2CC[C@]3(O)C(=O)COC(=O)CCCCCCCCCCS(=O)(=O)O)[C@@]2(C)C=CC(=O)C=C12` [Example 2, 6α-Methylprednisolone, 21-(11-sulfohendecanoate), sodium salt], the “t90% (time for 10% hydrolysis)” value [1] is reported as 3.0 years.

For `C[C@]12C=CC(=O)C=C1CC[C@@H]1[C@@H]2C(=O)C[C@@]2(C)[C@H]1CC[C@]2(O)C(=O)CO` [prednisone], the water solubility [3] is given as “generally poorly water soluble”.

In the case of `C[C@]12CCC(=O)C=C1CC[C@@H]1[C@@H]2[C@@H](O)C[C@@]2(C)[C@H]1CC[C@]2(O)C(=O)COS(=O)(=O)O` [21-sulfate of hydrocortisone], the activity in mice [4] is given as “inactive”.
